Measured values reported in patent publication US9926297B2, “Bicyclic AZA compounds as muscarinic M1 receptor and/or M4 receptor agonists” (Heptares Therapeutics Limited, priority 2014, dated 2018).

What was measured:
[1] = target: human muscarinic M3 receptor (Homo sapiens, UniProt P20309); assay: Alphascreen Surefire phospho-ERK1/2 functional assay, M3; details: for Emax: CHO, read-out: % Emax cf. ACh, M3, CHO cells stably expressing human M3, relative to ACh; for EC50: pEC50 M3, CHO cells stably expressing human M3, phospho-ERK1/2, * = variable results
[2] = target: T1, human muscarinic M2 receptor (Homo sapiens, UniProt P08172); assay: Alphascreen Surefire phospho-ERK1/2 functional assay, M2; details: for Emax: CHO, read-out: % Emax cf. ACh, M2, CHO cells stably expressing human M2, relative to ACh
T1 sequence (P08172 1-466): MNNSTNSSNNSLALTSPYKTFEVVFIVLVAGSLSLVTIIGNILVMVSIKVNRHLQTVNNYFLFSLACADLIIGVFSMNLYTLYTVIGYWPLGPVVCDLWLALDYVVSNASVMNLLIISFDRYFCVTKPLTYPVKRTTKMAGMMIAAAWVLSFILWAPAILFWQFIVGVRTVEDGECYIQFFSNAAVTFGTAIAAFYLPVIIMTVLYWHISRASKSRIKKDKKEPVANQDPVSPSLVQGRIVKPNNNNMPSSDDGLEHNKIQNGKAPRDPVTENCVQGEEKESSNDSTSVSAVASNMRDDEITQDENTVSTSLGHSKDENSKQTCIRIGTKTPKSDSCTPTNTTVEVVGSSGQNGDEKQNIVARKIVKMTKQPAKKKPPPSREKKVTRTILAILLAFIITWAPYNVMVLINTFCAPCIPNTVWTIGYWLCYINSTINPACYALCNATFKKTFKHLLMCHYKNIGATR

[3] = target: T2, human muscarinic M4 receptor (Homo sapiens, UniProt P08173); assay: Alphascreen Surefire phospho-ERK1/2 functional assay, M4; assay type: cell-based; details: for EC50: CHO cells stably expressing human M4, phospho-ERK1/2, * = variable results, read-out: pEC50 M4 (converted); for Emax: CHO, read-out: % Emax cf. ACh, M4, CHO cells stably expressing human M4, relative to ACh
T2 construct: expressed in transfected cells
T2 sequence (P08173 1-479): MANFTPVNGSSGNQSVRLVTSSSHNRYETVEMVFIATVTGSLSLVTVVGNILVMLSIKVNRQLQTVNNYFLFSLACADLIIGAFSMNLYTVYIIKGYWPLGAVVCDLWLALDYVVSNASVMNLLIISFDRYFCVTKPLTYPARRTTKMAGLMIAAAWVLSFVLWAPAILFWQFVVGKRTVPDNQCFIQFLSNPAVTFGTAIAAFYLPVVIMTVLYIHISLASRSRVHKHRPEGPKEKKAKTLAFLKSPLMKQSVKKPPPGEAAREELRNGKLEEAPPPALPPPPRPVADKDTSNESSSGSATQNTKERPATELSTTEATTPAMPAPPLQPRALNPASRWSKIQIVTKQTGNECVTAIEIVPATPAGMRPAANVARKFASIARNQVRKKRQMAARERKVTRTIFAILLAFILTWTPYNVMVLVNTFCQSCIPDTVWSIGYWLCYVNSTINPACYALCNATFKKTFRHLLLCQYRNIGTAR

[4] = target: T3, human muscarinic M1 receptor (Homo sapiens, UniProt P11229); assay: Alphascreen Surefire phospho-ERK1/2 functional assay, M1; assay type: cell-based; details: for EC50: CHO cells stably expressing human M1, phospho-ERK1/2, * = variable results, read-out: pEC50 M1 (converted); for Emax: CHO, read-out: % Emax cf. ACh, M1, CHO cells stably expressing human M1, relative to ACh
T3 sequence (P11229 1-460): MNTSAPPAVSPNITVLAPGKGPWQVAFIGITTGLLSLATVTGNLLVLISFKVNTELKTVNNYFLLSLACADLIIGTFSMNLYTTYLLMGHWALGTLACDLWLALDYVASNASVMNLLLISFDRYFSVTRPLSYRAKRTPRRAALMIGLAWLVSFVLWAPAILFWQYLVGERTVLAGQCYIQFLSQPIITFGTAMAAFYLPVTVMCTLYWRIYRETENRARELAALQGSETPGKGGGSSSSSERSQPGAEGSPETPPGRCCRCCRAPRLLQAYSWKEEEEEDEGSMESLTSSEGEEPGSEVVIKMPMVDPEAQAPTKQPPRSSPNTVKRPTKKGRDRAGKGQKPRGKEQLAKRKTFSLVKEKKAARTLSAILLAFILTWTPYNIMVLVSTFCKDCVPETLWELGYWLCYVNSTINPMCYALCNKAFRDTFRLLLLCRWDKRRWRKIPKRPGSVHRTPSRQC

Chain of human muscarinic M3 receptor (P20309 whole entry): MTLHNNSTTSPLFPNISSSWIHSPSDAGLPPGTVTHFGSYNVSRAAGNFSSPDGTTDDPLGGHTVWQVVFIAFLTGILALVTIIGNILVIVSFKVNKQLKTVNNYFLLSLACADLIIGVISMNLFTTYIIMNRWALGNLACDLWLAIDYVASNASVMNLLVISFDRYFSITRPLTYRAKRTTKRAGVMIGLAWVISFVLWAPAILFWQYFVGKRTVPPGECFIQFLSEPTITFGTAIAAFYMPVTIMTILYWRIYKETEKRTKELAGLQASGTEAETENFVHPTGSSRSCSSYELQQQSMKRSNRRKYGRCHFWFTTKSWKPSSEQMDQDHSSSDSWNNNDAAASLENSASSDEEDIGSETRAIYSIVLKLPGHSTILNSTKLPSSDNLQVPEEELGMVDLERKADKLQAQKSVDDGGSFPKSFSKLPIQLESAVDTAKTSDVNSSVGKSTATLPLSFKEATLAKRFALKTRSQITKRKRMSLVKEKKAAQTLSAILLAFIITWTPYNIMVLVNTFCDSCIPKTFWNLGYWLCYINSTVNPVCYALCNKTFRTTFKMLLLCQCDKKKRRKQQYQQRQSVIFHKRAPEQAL

Emax [1]	EC50 [1]	EC50 [2]	Emax [2]	EC50 [3]	Emax [3]	EC50 [4]	Emax [4]	Structure (SMILES)
4%	> 20000 nM	> 20000 nM	14%	50.1 nM	89%	10000 nM	32%	CCOC(=O)N1CCC2(CC(N3CCC(C4CCCN4C(C)=O)CC3)C2)C1 (single isomer, unassigned) [2-3 Isomer 2, ethyl 2-[4-(1-acetylpyrrolidin-2-yl)piperidin-1-yl]-6-azaspiro[3.4]octane-6-carboxylate]
16%	> 20000 nM	> 20000 nM	30%	15.8 nM	132%	3160 nM	57%	CCOC(=O)N1CCC2(CC(N3CCC(C4CCCN4C(=O)CC)CC3)C2)C1 (single isomer, unassigned) [2-6 Isomer 2, ethyl 2-[4-(1-propanoylpyrrolidin-2-yl)piperidin-1-yl]-6-azaspiro[3.4]octane-6-carboxylate]
27%	7940 nM	> 20000 nM	13%	12.6 nM	100%	794 nM	41%	CCOC(=O)N1CCC2(CC(N3CCC([C@@H]4CCCN4C(=O)CC)CC3)C2)C1 (single isomer, unassigned) [2-7 Isomer 2]
7%	> 20000 nM	> 20000 nM	7%	25.1 nM	100%		39%	CCOC(=O)N1CCC2(CC(N3CCC(C4CCCN4C(=O)OC)CC3)C2)C1 (single isomer, unassigned) [2-11 Isomer 2, ethyl 2-{4-[1-(methoxycarbonyl)pyrrolidin-2-yl]piperidin-1-yl}-6-azaspiro[3.4]octane-6-carboxylate]
6%	> 20000 nM	> 20000 nM	9%	10 nM	57%	> 20000 nM	9%	CCOC(=O)N1CCC2(CC(N3CCC([C@@H]4CCCN4C(=O)OC)CC3)C2)C1 (single isomer, unassigned) [2-12 Isomer 2]
24%	> 20000 nM	> 20000 nM	7%	158 nM	57%	10000 nM	69%	CCOC(=O)N1CCC2(CC(N3CCC([C@H]4CCCN4C(=O)OC)CC3)C2)C1 (single isomer, unassigned) [2-13 Isomer 2]
7%	> 20000 nM	> 20000 nM	3%	15.8 nM	91%	> 20000 nM	43%	CCOC(=O)N1CCC2(CC(N3CCC(C4CCCN4C(=O)OCC)CC3)C2)C1 (single isomer, unassigned) [2-14 Isomer 2, ethyl 2-{4-[1-(ethoxycarbonyl)pyrrolidin-2-yl]piperidin-1-yl}-6-azaspiro[3.4]octane-6-carboxylate]
7%	> 20000 nM	> 20000 nM	53%	6.31 nM	114%	251 nM	41%	CCOC(=O)N1CCC2(CC(N3CCC(C4CCCN4C(=O)NC)CC3)C2)C1 (single isomer, unassigned) [2-16 Isomer 2, ethyl 2-{4-[1-(methylcarbamoyl)pyrrolidin-2-yl]piperidin-1-yl}-6-azaspiro[3.4]octane-6-carboxylate]
4%	> 20000 nM	> 20000 nM	5%	3.16 nM	116%	200 nM	72%	CCOC(=O)N1CCC2(CC(N3CCC([C@@H]4CCCN4C(=O)NC)CC3)C2)C1 (single isomer, unassigned) [2-17 Isomer 2]
4%	> 20000 nM	> 20000 nM	1%	79.4 nM	56%	> 20000 nM	8%	CCOC(=O)N1CCC2(CC(N3CCC([C@H]4CCCN4C(=O)NC)CC3)C2)C1 (single isomer, unassigned) [2-18 Isomer 2]

Second part, the compound before the results:

Structure (SMILES)	Emax [1]	EC50 [1]	EC50 [2]	Emax [2]	EC50 [3]	Emax [3]	EC50 [4]	Emax [4]
CCOC(=O)N1CCC2(CC(N3CCC(n4nccn4)CC3)C2)C1 (single isomer, unassigned) [1-61 Isomer 2, ethyl 2-[4-(2H-1,2,3-triazol-2-yl)piperidin-1-yl]-6-azaspiro[3.4]octane-6-carboxylate]	2%	> 20000 nM	> 20000 nM	1%	25.1 nM	97%	316 nM	66%
CCOC(=O)N1CCC2(CC(N3CCC(C4CCCN4)CC3)C2)C1 (single isomer, unassigned) [2-1 Isomer 2, ethyl 2-[4-(pyrrolidin-2-yl)piperidin-1-yl]-6-azaspiro[3.4]octane-6-carboxylate]		> 20000 nM	> 20000 nM		316 nM	63%	> 20000 nM	6%
CCOC(=O)N1CCC2(CC(N3CCC(C4CCCN4C=O)CC3)C2)C1 (single isomer, unassigned) [2-2 Isomer 2, ethyl 2-[4-(1-formylpyrrolidin-2-yl)piperidin-1-yl]-6-azaspiro[3.4]octane-6-carboxylate]	16%	> 20000 nM	> 20000 nM	53%	63.1 nM	79%	794 nM	39%
CCOC(=O)N1CCC2(CC(N3CCC(C4CCCN4C(=O)C(F)(F)F)CC3)C2)C1 (single isomer, unassigned) [2-4 Isomer 2, ethyl 2-{4-[1-(trifluoroacetyl)pyrrolidin-2-yl]piperidin-1-yl}-6-azaspiro[3.4]octane-6-carboxylate]	3%	> 20000 nM	> 20000 nM	2%	50.1 nM	110%	316 nM	102%
CCOC(=O)N1CCC2(CC(N3CCC([C@@H]4CCCN4C(=O)C4CC4)CC3)C2)C1 (single isomer, unassigned) [2-8 Isomer 2]	4%	> 20000 nM	> 20000 nM	3%	15.8 nM	86%	631 nM	36%
CCOC(=O)N1CCC2(CC(N3CCC([C@@H]4CCCN4C(=O)C4CCC4)CC3)C2)C1 (single isomer, unassigned) [2-9 Isomer 2]	6%	> 20000 nM	> 20000 nM	4%	10 nM	104%	1000 nM	43%
CNC(=O)N1CCC[C@H]1C1CCN(C2CC3(CCN(C(=O)OC)C3)C2)CC1 (single isomer, unassigned) [2-15 Isomer 2]	9%	> 20000 nM	> 20000 nM	9%	15.8 nM	111%	398 nM	72%
